Measurements published in PubChem BioAssay AID1963971 (Molecular Pharmacology Branch, DTP, NCI, 2024).
pIC50: −log10 of the molar value.

Tested on: 953936-095-R-J2-PDC spheroids with HUVEC/MSC, viability
Experiment: Anticancer human tumor 953936-095-R-J2-PDC patient-derived cervical squamous cell carcinoma cell line growth inhibition [PI3K]
Settings: for pIC50: curve of first compound; for viability, T/C: stronger effect = lower value
Outline: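 Agents were dosed from a top concentration near clinical Cmax (otherwise 10 microM) in half-log decrements, alone or combined with PI3K inhibitors. The spheroids contain tumor cells plus endothelial (HUVEC) and MSC stroma; viability is measured.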

[1] = second compound 0.0316 µM, first compound 0.0316 µM
[2] = second compound 0.0316 µM, first compound 0.1 µM
[3] = second compound 0.0316 µM, first compound 0.316 µM
[4] = second compound 0.0316 µM, first compound 1 µM
[5] = second compound 0.0316 µM, first compound 3.16 µM
[6] = second compound 0.0316 µM, first compound 10 µM
[7] = second compound 0.1 µM, first compound 0.0316 µM
[8] = second compound 0.1 µM, first compound 0.1 µM
[9] = second compound 0.1 µM, first compound 0.316 µM
[10] = second compound 0.1 µM, first compound 1 µM
[11] = second compound 0.1 µM, first compound 3.16 µM
[12] = second compound 0.1 µM, first compound 10 µM
[13] = second compound 0.316 µM, first compound 0.0316 µM
[14] = second compound 0.316 µM, first compound 0.1 µM
[15] = second compound 0.316 µM, first compound 0.316 µM
[16] = second compound 0.316 µM, first compound 1 µM
[17] = second compound 0.316 µM, first compound 3.16 µM
[18] = second compound 0.316 µM, first compound 10 µM
[19] = second compound 1 µM, first compound 0.0316 µM
[20] = second compound 1 µM, first compound 0.1 µM
[21] = second compound 1 µM, first compound 0.316 µM
[22] = second compound 1 µM, first compound 1 µM
[23] = second compound 1 µM, first compound 3.16 µM
[24] = second compound 1 µM, first compound 10 µM
[25] = second compound 3.16 µM, first compound 0.0316 µM
[26] = second compound 3.16 µM, first compound 0.1 µM
[27] = second compound 3.16 µM, first compound 0.316 µM
[28] = second compound 3.16 µM, first compound 1 µM
[29] = second compound 3.16 µM, first compound 3.16 µM
[30] = second compound 3.16 µM, first compound 10 µM
[31] = second compound 10 µM, first compound 0.0316 µM
[32] = second compound 10 µM, first compound 0.1 µM
[33] = second compound 10 µM, first compound 0.316 µM
[34] = second compound 10 µM, first compound 1 µM
[35] = second compound 10 µM, first compound 3.16 µM
[36] = second compound 10 µM, first compound 10 µM
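Note: spheroids exposed to compounds for seven days before read-out.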

## CC(C)NCC(C(=O)N1CCN(c2ncnc3c2C(C)CC3O)CC1)c1ccc(Cl)cc1 (stereo not drawn) + Cc1nc(NC(=O)N2CCCC2C(N)=O)sc1-c1ccnc(C(C)(C)C(F)(F)F)c1
Second compound 0.0316 µM
  pIC50: 6.08
Second compound 0.1 µM
  pIC50: 6.15
Second compound 0.316 µM
  pIC50: 6.33
Second compound 1 µM
  pIC50: > 7.50
Second compound 3.16 µM
  pIC50: > 7.50
Second compound 10 µM
  pIC50: > 7.50
[1]
  viability, T/C: 88.8%
[2]
  viability, T/C: 89.2%
[3]
  viability, T/C: 75.7%
[4]
  viability, T/C: 44.1%
[5]
  viability, T/C: 23.3%
[6]
  viability, T/C: 14.3%
[7]
  viability, T/C: 82.6%
[8]
  viability, T/C: 76.7%
[9]
  viability, T/C: 67.2%
[10]
  viability, T/C: 42.4%
[11]
  viability, T/C: 22.4%
[12]
  viability, T/C: 12.2%
[13]
  viability, T/C: 64.6%
[14]
  viability, T/C: 62.4%
[15]
  viability, T/C: 55.6%
[16]
  viability, T/C: 38.2%
[17]
  viability, T/C: 17.4%
[18]
  viability, T/C: 11.6%
[19]
  viability, T/C: 48.7%
[20]
  viability, T/C: 42.2%
[21]
  viability, T/C: 39.3%
[22]
  viability, T/C: 28.3%
[23]
  viability, T/C: 16.2%
[24]
  viability, T/C: 7.67%
[25]
  viability, T/C: 27.6%
[26]
  viability, T/C: 25.6%
[27]
  viability, T/C: 24.5%
[28]
  viability, T/C: 18%
[29]
  viability, T/C: 11.3%
[30]
  viability, T/C: 5.35%
[31]
  viability, T/C: 11.6%
[32]
  viability, T/C: 11.2%
[33]
  viability, T/C: 10.9%
[34]
  viability, T/C: 8.17%
[35]
  viability, T/C: 5.5%
[36]
  viability, T/C: 2.61%

## CCN1CCN(Cc2ccc(Nc3ncc(F)c(-c4cc(F)c5nc(C)n(C(C)C)c5c4)n3)nc2)CC1 + Cc1nc(NC(=O)N2CCCC2C(N)=O)sc1-c1ccnc(C(C)(C)C(F)(F)F)c1
Second compound 0.0316 µM
  pIC50: < 6.00
Second compound 0.1 µM
  pIC50: < 6.00
Second compound 0.316 µM
  pIC50: < 6.00
Second compound 1 µM
  pIC50: > 8.50
Second compound 3.16 µM
  pIC50: > 8.50
Second compound 10 µM
  pIC50: > 8.50
Second compound 0.0316 µM, first compound 0.00316 µM
  viability, T/C: 89.8%
Second compound 0.0316 µM, first compound 0.01 µM
  viability, T/C: 93.8%
[1]
  viability, T/C: 88%
[2]
  viability, T/C: 88.6%
[3]
  viability, T/C: 87.1%
[4]
  viability, T/C: 75.5%
Second compound 0.1 µM, first compound 0.00316 µM
  viability, T/C: 84.8%
Second compound 0.1 µM, first compound 0.01 µM
  viability, T/C: 83.4%
[7]
  viability, T/C: 83.4%
[8]
  viability, T/C: 78.3%
[9]
  viability, T/C: 76%
[10]
  viability, T/C: 73.4%
Second compound 0.316 µM, first compound 0.00316 µM
  viability, T/C: 66.3%
Second compound 0.316 µM, first compound 0.01 µM
  viability, T/C: 63.4%
[13]
  viability, T/C: 65.9%
[14]
  viability, T/C: 55.8%
[15]
  viability, T/C: 58.6%
[16]
  viability, T/C: 53%
Second compound 1 µM, first compound 0.00316 µM
  viability, T/C: 47.6%
Second compound 1 µM, first compound 0.01 µM
  viability, T/C: 46%
[19]
  viability, T/C: 43.7%
[20]
  viability, T/C: 41.8%
[21]
  viability, T/C: 38.3%
[22]
  viability, T/C: 36.7%
Second compound 3.16 µM, first compound 0.00316 µM
  viability, T/C: 26.6%
Second compound 3.16 µM, first compound 0.01 µM
  viability, T/C: 26.3%
[25]
  viability, T/C: 24.4%
[26]
  viability, T/C: 23.6%
[27]
  viability, T/C: 23.3%
[28]
  viability, T/C: 22.2%
Second compound 10 µM, first compound 0.00316 µM
  viability, T/C: 10.8%
Second compound 10 µM, first compound 0.01 µM
  viability, T/C: 11.2%
[31]
  viability, T/C: 10.5%
[32]
  viability, T/C: 9.34%
[33]
  viability, T/C: 9.59%
[34]
  viability, T/C: 11.1%

## Cn1ncc(Cl)c1-c1cc(C(=O)NC(CN)Cc2cccc(F)c2)sc1Cl (stereo not drawn) + Cc1nc(NC(=O)N2CCCC2C(N)=O)sc1-c1ccnc(C(C)(C)C(F)(F)F)c1
Second compound 0.0316 µM
  pIC50: 6.42
Second compound 0.1 µM
  pIC50: 6.41
Second compound 0.316 µM
  pIC50: 6.78
Second compound 1 µM
  pIC50: > 7.50
Second compound 3.16 µM
  pIC50: > 7.50
Second compound 10 µM
  pIC50: > 7.50
[1]
  viability, T/C: 76.7%
[2]
  viability, T/C: 75.7%
[3]
  viability, T/C: 50.5%
[4]
  viability, T/C: 32.2%
[5]
  viability, T/C: 17.5%
[6]
  viability, T/C: 12.8%
[7]
  viability, T/C: 79.4%
[8]
  viability, T/C: 77.3%
[9]
  viability, T/C: 53.2%
[10]
  viability, T/C: 28.9%
[11]
  viability, T/C: 16.6%
[12]
  viability, T/C: 9.11%
[13]
  viability, T/C: 60.4%
[14]
  viability, T/C: 56.8%
[15]
  viability, T/C: 41.8%
[16]
  viability, T/C: 23.9%
[17]
  viability, T/C: 13.9%
[18]
  viability, T/C: 9.97%
[19]
  viability, T/C: 43.5%
[20]
  viability, T/C: 40%
[21]
  viability, T/C: 32.1%
[22]
  viability, T/C: 19.2%
[23]
  viability, T/C: 11.3%
[24]
  viability, T/C: 6.42%
[25]
  viability, T/C: 25.1%
[26]
  viability, T/C: 24%
[27]
  viability, T/C: 19.2%
[28]
  viability, T/C: 13.6%
[29]
  viability, T/C: 8.24%
[30]
  viability, T/C: 4.61%
[31]
  viability, T/C: 11.2%
[32]
  viability, T/C: 10.5%
[33]
  viability, T/C: 11.5%
[34]
  viability, T/C: 8.02%
[35]
  viability, T/C: 4.99%
[36]
  viability, T/C: 1.1%

## Cn1nccc1Nc1nccc(-c2ccn(C(CO)c3ccc(Cl)c(F)c3)c(=O)c2)n1 (stereo not drawn) + Cc1nc(NC(=O)N2CCCC2C(N)=O)sc1-c1ccnc(C(C)(C)C(F)(F)F)c1
Second compound 0.0316 µM
  pIC50: < 5.00
Second compound 0.1 µM
  pIC50: < 5.00
Second compound 0.316 µM
  pIC50: < 5.00
Second compound 1 µM
  pIC50: > 7.50
Second compound 3.16 µM
  pIC50: > 7.50
Second compound 10 µM
  pIC50: > 7.50
[1]
  viability, T/C: 77.7%
[2]
  viability, T/C: 89.9%
[3]
  viability, T/C: 78.3%
[4]
  viability, T/C: 69.5%
[5]
  viability, T/C: 72.9%
[6]
  viability, T/C: 67.1%
[7]
  viability, T/C: 77.1%
[8]
  viability, T/C: 76.3%
[9]
  viability, T/C: 66.7%
[10]
  viability, T/C: 74.3%
[11]
  viability, T/C: 63%
[12]
  viability, T/C: 68.5%
[13]
  viability, T/C: 63.3%
[14]
  viability, T/C: 55.9%
[15]
  viability, T/C: 52.6%
[16]
  viability, T/C: 56.4%
[17]
  viability, T/C: 57.7%
[18]
  viability, T/C: 52.6%
[19]
  viability, T/C: 45.3%
[20]
  viability, T/C: 39.7%
[21]
  viability, T/C: 38.8%
[22]
  viability, T/C: 37.6%
[23]
  viability, T/C: 40.1%
[24]
  viability, T/C: 31.9%
[25]
  viability, T/C: 23.5%
[26]
  viability, T/C: 23.9%
[27]
  viability, T/C: 21.1%
[28]
  viability, T/C: 17.2%
[29]
  viability, T/C: 15.2%
[30]
  viability, T/C: 10.8%
[31]
  viability, T/C: 11.4%
[32]
  viability, T/C: 9.37%
[33]
  viability, T/C: 6.34%
[34]
  viability, T/C: 4.57%
[35]
  viability, T/C: 3.58%
[36]
  viability, T/C: 1.86%
